These results are taken from PMC10740580, “Benzothiazole-Phthalimide Hybrids as Anti-Breast Cancer and Antimicrobial Agents” (Antibiotics, 2023).

SMILES strings stand for the structures.

In the test the test system is MDA-MB-231 cells. As to the kind of experiment: TUNEL assay (DNA damage). The following applies: 50 μM, 24 h. The test is classed as cell-based, human. The protocol:
To further assess the effect of 3h treatment in MDA-MB-231, the terminal deoxynucleotidyl transferase dUTP nick-end labeling (TUNEL) assay was used. Thus, 3h or Thalidomide, as reference drug, were administered to the cells, for 24 h, at 25 and 50 μM concentrations, respectively, or with only the vehicle (DMSO), as negative control and then processed as outlined in the experimental section. […] Nuclei were counterstained with blue DAPI (Figure 2, panels A), and merge channels were also shown (Figure 2, panels C), where it is evident the perfect superposition of green and blue signals. […] Images taken from bright fields were also included (Figure 2, panels D).
DNA damage and cell death were analyzed by means of the TUNEL assay as indicated by the manufacturer’s protocols (CF™488A TUNEL Assay Apoptosis Detection Kit, Biotium, Hayward, CA, USA), with few changes, as in [42]. DAPI staining (0.2 μg/mL, Sigma Aldrich, Milan, Italy) was adopted for cell nuclei. Observations were made at 20× magnification using a fluorescence microscope (Leica DM 6000, Leica Microsystem Srl, Buccinasco, Italy). LAS-X software (Version: 3.5.7.23225; Leica Microsystem Srl, Buccinasco, Italy) was employed for the acquisition and processing of the images. Images are representative of two separate experiments from which different fields were acquired.
Figure 2 TUNEL assay. […]

Turning to `O=C1c2ccccc2C(=O)N1c1nc2ccc(Oc3ccccc3)cc2s1` [3h, 2-[6-Phenoxy-1,3-benzothiazol-2-yl]-1H-isoindole-1,3(2H)-dione], the “DNA damage (TUNEL, green nuclear fluorescence)” value is on record as “promoted DNA damage”.
